Source: patent US10233182B2, “Substituted spirocyclic inhibitors of autotaxin” (X-Rx, Inc., priority 2014, dated 2019)

Biological target: Autotaxin (Homo sapiens (Human), UniProt Q13822)
Test: Autotaxin LPC Cascade Assay
Format: biochemical
Details: Autotaxin 5 nM, LPC 100 μM, choline oxidase/HRP/Ampliflu Red fluorescence read-out, 2% DMSO, RT; read-out: IC50 ATX Activity
Procedure: Autotaxin LPC Cascade Assay:
HA130 and Test Compounds:
Prepare a 1 mM stock of HA130 and a 3 mM stock of each compound in 100% DMSO. Perform a 1:3 serial dilution in DMSO (transfer 5 l of compound to 10 l of DMSO). Add 240 l of buffer to generate a top working concentration of 40 µM (HA130) and 120 µM (test compound) in 4% DMSO.
Ampliflu Red—Prepare a stock of 5 mM from 100 mM in 100% DMSO. Further dilute to a working concentration of 400 μM in buffer (8% DMSO).
Together with compound this yields a 2% DMSO final concentration.
Choline Oxidase/HRP—0.8 U/mL CO and 8 U/mL HRP.
Incubate for 10 mins at RT. Add 5 µl of LPC and incubate for 1 hr on the plate shaker. Prepare the CO/HRP and AR immediately prior to use. Add 2.5 l of CO/HRP and follow with 2.5 l AR. Note order of addition, CO/HRP mix before AR. Read fluorescence intensity (ex/em: 530/590 nm) kinetically for 30 min at RT on the Tecan M1000.

Question: For `CC(C)[C@@H](NC(=O)c1cc(C(F)(F)F)ccc1F)C(=O)N1CCC2(CC1)C(=O)N(C)C(=O)N2c1ccc2[nH]nnc2c1` [Example 32, (R)—N-(1-(1-(1H-Benzo[d][1,2,3]triazol-5-yl)-3-methyl-2,4-dioxo-1,3,8-triazaspiro [4.5]decan-8-yl)-3-methyl-1-oxobutan-2-yl)-2-fluoro-5-(trifluoromethyl)benzamide], which IC50 is on record?
Answer: < 0.5 µM

Question: For `CC(C)[C@@H](NC(=O)c1cccc(C(F)(F)F)c1)C(=O)N1CCC2(CC1)C(=O)N(C)C(=O)N2c1ccccc1` [Example 33, (R)—N-(3-Methyl-1-(3-methyl-2,4-dioxo-1-phenyl-1,3,8-triazaspiro[4.5]decan-8-yl)-1-oxobutan-2-yl)-3-(trifluoromethyl)benzamide], which IC50 is on record?
Answer: 0.5 to 1 µM

Question: How did the IC50 turn out when `CCc1cccc(C(=O)N[C@@H](C(=O)N2CCC3(CC2)C(=O)N(C)C(=O)N3c2ccccc2)C(C)C)c1F` [Example 34, (R)-3-Ethyl-2-fluoro-N-(3-methyl-1-(3-methyl-2,4-dioxo-1-phenyl-1,3,8-triazaspiro[4.5]decan-8-yl)-1-oxobutan-2-yl)benzamide] was run?
Answer: ≥ 1 µM

Question: How did the IC50 turn out when `CC(C)[C@@H](NC(=O)c1ccc(Cl)c(Cl)c1)C(=O)N1CCC2(CC1)C(=O)N(C)C(=O)N2c1ccccc1` [Example 35, (R)-3,4-Dichloro-N-(3-methyl-1-(3-methyl-2,4-dioxo-1-phenyl-1,3,8-triazaspiro[4.5]decan-8-yl)-1-oxobutan-2-yl)benzamide] was run?
Answer: ≥ 1 µM

Question: With `CC(C)[C@@H](NC(=O)c1cc(Cl)ccc1Cl)C(=O)N1CCC2(CC1)C(=O)N(C)C(=O)N2c1ccccc1` [Example 36, (R)-2,5-Dichloro-N-(3-methyl-1-(3-methyl-2,4-dioxo-1-phenyl-1,3,8-triazaspiro[4.5]decan-8-yl)-1-oxobutan-2-yl)benzamide] as the molecule, how does the IC50 read?
Answer: ≥ 1 µM

Question: With `CCc1ccc(F)c(C(=O)N[C@@H](C(=O)N2CCC3(CC2)C(=O)N(C)C(=O)N3c2ccccc2)[C@H](C)OC)c1` [Example 37, 5-Ethyl-2-fluoro-N-((2R,3S)-3-methoxy-1-(3-methyl-2,4-dioxo-1-phenyl-1,3,8-triazaspiro[4.5]decan-8-yl)-1-oxobutan-2-yl)benzamide] as the molecule, how does the IC50 read?
Answer: < 0.5 µM

Question: For `CCc1cc(F)cc(C(=O)N[C@@H](C(=O)N2CCC3(CC2)C(=O)N(C)C(=O)N3c2ccccc2)[C@H](C)OC)c1` [Example 38, 3-Ethyl-5-fluoro-N-((2R,3S)-3-methoxy-1-(3-methyl-2,4-dioxo-1-phenyl-1,3,8-triazaspiro[4.5]decan-8-yl)-1-oxobutan-2-yl)benzamide], which IC50 is on record?
Answer: ≥ 1 µM

Question: With `CCc1ccc(F)c(C(=O)N[C@@H](C(=O)N2CCC3(CC2)C(=O)N(C)C(=O)N3c2ccccc2)C(C)C)c1` [Example 39, (R)-5-Ethyl-2-fluoro-N-(3-methyl-1-(3-methyl-2,4-dioxo-1-phenyl-1,3,8-triazaspiro[4.5]decan-8-yl)-1-oxobutan-2-yl)benzamide] as the molecule, how does the IC50 read?
Answer: < 0.5 µM

Question: `CCc1ccc(F)c(C(=O)N[C@@H](C(=O)N2CCC3(CC2)C(=O)N(C)C(=O)N3c2ccc(OC)cc2)[C@@H](C)OC)c1` [Example 40, 5-Ethyl-2-fluoro-N-((2R,3R)-3-methoxy-1-(1-(4-methoxyphenyl)-3-methyl-2,4-dioxo-1,3,8-triazaspiro[4.5]decan-8-yl)-1-oxobutan-2-yl)benzamide] was tested. Which IC50 did it give?
Answer: < 0.5 µM

Question: Which IC50 does the source give for `CC[C@@H](C)[C@@H](NC(=O)c1cc(C)cc(F)c1)C(=O)N1CCC2(CC1)C(=O)N(C)C(=O)N2c1ccc(OC)cc1` [Example 41, 3-Fluoro-N-((2R,3R)-1-(1-(4-methoxyphenyl)-3-methyl-2,4-dioxo-1,3,8-triazaspiro[4.5]decan-8-yl)-3-methyl-1-oxopentan-2-yl)-5-methylbenzamide] here?
Answer: < 0.5 µM

Question: How did the IC50 turn out when `CC(C)[C@@H](NC(=O)c1cc(C2CC2)ccc1F)C(=O)N1CCC2(CC1)C(=O)N(C)C(=O)N2c1ccccc1` [Example 42, (R)-5-Cyclopropyl-2-fluoro-N-(3-methyl-1-(3-methyl-2,4-dioxo-1-phenyl-1,3,8-triazaspiro[4.5]decan-8-yl)-1-oxobutan-2-yl)benzamide] was run?
Answer: < 0.5 µM

Question: How did the IC50 turn out when `CC(C)[C@@H](NC(=O)c1cc(Cl)ccc1F)C(=O)N1CCC2(CC1)C(=O)N(C)C(=O)N2c1ccccc1` [Example 43, (R)-5-Chloro-2-fluoro-N-(3-methyl-1-(3-methyl-2,4-dioxo-1-phenyl-1,3,8-triazaspiro[4.5]decan-8-yl)-1-oxobutan-2-yl)benzamide] was run?
Answer: < 0.5 µM

Question: With `CC(C)[C@@H](NC(=O)c1cc(C(F)(F)F)ccc1F)C(=O)N1CCC2(CC1)C(=O)N(C)C(=O)N2c1ccccc1` [Example 44, (R)-2-Fluoro-N-(3-methyl-1-(3-methyl-2,4-dioxo-1-phenyl-1,3,8-triazaspiro[4.5]decan-8-yl)-1-oxobutan-2-yl)-5-(trifluoromethyl)benzamide] as the molecule, how does the IC50 read?
Answer: < 0.5 µM

Question: Which IC50 does the source give for `COc1ccc(N2C(=O)N(C)C(=O)C23CCN(C(=O)[C@H](NC(=O)c2cc(C4CC4)ccc2F)C(C)C)CC3)cc1` [Example 45, (R)-5-Cyclopropyl-2-fluoro-N-(1-(1-(4-methoxyphenyl)-3-methyl-2,4-dioxo-1,3,8-triazaspiro[4.5]decan-8-yl)-3-methyl-1-oxobutan-2-yl)benzamide] here?
Answer: < 0.5 µM

Question: `CCc1cccc(C(=O)N[C@@H](C(=O)N2CCC3(CC2)C(=O)N(C)C(=O)N3c2ccccc2)C(C)C)c1` [Example 46, (R)-3-Ethyl-N-(3-methyl-1-(3-methyl-2,4-dioxo-1-phenyl-1,3,8-triazaspiro[4.5]decan-8-yl)-1-oxobutan-2-yl)benzamide] was tested. Which IC50 did it give?
Answer: 0.5 to 1 µM

Question: How did the IC50 turn out when `CCc1cc(F)cc(C(=O)N[C@@H](C(=O)N2CCC3(CC2)C(=O)N(C)C(=O)N3c2ccccc2)C(C)C)c1` [Example 47, (R)-3-Ethyl-5-fluoro-N-(3-methyl-1-(3-methyl-2,4-dioxo-1-phenyl-1,3,8-triazaspiro[4.5]decan-8-yl)-1-oxobutan-2-yl)benzamide] was run?
Answer: 0.5 to 1 µM

Question: For `CC(C)[C@@H](NC(=O)c1cc(Cl)cc(Cl)c1)C(=O)N1CCC2(CC1)C(=O)N(C)C(=O)N2c1ccccc1` [Example 48, (R)-3,5-Dichloro-N-(3-methyl-1-(3-methyl-2,4-dioxo-1-phenyl-1,3,8-triazaspiro[4.5]decan-8-yl)-1-oxobutan-2-yl)benzamide], which IC50 is on record?
Answer: < 0.5 µM

Question: For `COc1ccc(N2C(=O)N(C)C(=O)C23CCN(C(=O)[C@H](NC(=O)c2cc(C4CC4)ccc2F)[C@@H](C)OC)CC3)cc1` [Example 49, 5-Cyclopropyl-2-fluoro-N-((2R,3R)-3-methoxy-1-(1-(4-methoxyphenyl)-3-methyl-2,4-dioxo-1,3,8-triazaspiro[4.5]decan-8-yl)-1-oxobutan-2-yl)benzamide], which IC50 is on record?
Answer: < 0.5 µM

Question: For `CCc1ccc(F)c(C(=O)N[C@@H](C(=O)N2CCC3(CC2)C(=O)N(C)C(=O)N3c2ccc(OC)cc2)C(C)C)c1` [Example 50, (R)-5-Ethyl-2-fluoro-N-(1-(1-(4-methoxyphenyl)-3-methyl-2,4-dioxo-1,3,8-triazaspiro[4.5]decan-8-yl)-3-methyl-1-oxobutan-2-yl)benzamide], which IC50 is on record?
Answer: < 0.5 µM

Question: `COc1ccc(N2C(=O)N(C)C(=O)C23CCN(C(=O)[C@H](NC(=O)c2cc(C(F)(F)F)ccc2F)C(C)C)CC3)cc1` [Example 51, (R)-2-Fluoro-N-(1-(1-(4-methoxyphenyl)-3-methyl-2,4-dioxo-1,3,8-triazaspiro[4.5]decan-8-yl)-3-methyl-1-oxobutan-2-yl)-5-(trifluoromethyl)benzamide] was tested. Which IC50 did it give?
Answer: < 0.5 µM
